Measured values published in DBAASP.
In brackets after ≈: the same amount, converted by molar mass. One block for each compound: values may come before it.

Tests used:
Test in all cases: ≥ marks a high value that may be exact or a test limit, other limits are often not marked, values filed in µg/mL are converted to µM
[1] = test system: Pseudomonas aeruginosa ATCC 27853
[2] = test system: Klebsiella pneumoniae KCTC 2208
[3] = test system: Acinetobacter baumannii KCTC 2508
[4] = test system: Staphylococcus epidermidis ATCC 12228
[5] = test system: Enterobacter cloacae ATCC 13047
[6] = test system: Escherichia coli ATCC 25922
[7] = test system: Candida krusei ATCC 6258
[8] = test system: Candida glabrata ATCC 90030
[9] = test system: Enterococcus faecalis ATCC 4028
[10] = test system: Candida albicans ATCC 90028
[11] = test system: Staphylococcus aureus ATCC 29213
[12] = test system: Klebsiella pneumoniae NCTC 13442
[13] = test system: Klebsiella pneumoniae ATCC 700603
[14] = test system: Acinetobacter baumannii Q12-0867
[15] = test system: Pseudomonas aeruginosa PAO1
[16] = test system: Campylobacter jejuni NCTC 11351
[17] = test system: Escherichia coli K-12
[18] = test system: Staphylococcus aureus NCTC 12493
[19] = test system: Pseudomonas aeruginosa Q12-0535
[20] = test system: Listeria monocytogenes NCTC 11994
[21] = test system: Klebsiella pneumoniae Q14-0095
[22] = test system: Enterococcus faecalis JH-2-2
[23] = test system: Pseudomonas aeruginosa Q14-0890
[24] = test system: Acinetobacter baumannii Q12-0809
[25] = test system: Staphylococcus aureus RN4220
[26] = test system: Campylobacter jejuni
[27] = test system: Pseudomonas aeruginosa Q14-0208
[28] = test system: Staphylococcus aureus MRSA-15
[29] = test system: Acinetobacter baumannii Q13-0717
[30] = test system: Escherichia coli
[31] = test system: Salmonella typhimurium SL1344
[32] = test system: Staphylococcus aureus Q14-0320
[33] = test system: Acinetobacter baumannii AB5075
[34] = test system: Bacillus licheniformis ATCC 14580
[35] = test system: Bacillus amyloliquefaciens ATCC 23842
[36] = test system: Enterococcus faecium 5F-10
[37] = test system: Staphylococcus aureus 215
[38] = test system: Staphylococcus aureus MR
[39] = test system: Bacillus subtilis ATCC 6051
[40] = test system: Enterococcus faecium
[41] = test system: Pseudomonas aeruginosa PA14
[42] = test system: Bacillus cereus ATCC 14579
[43] = test system: Enterococcus faecalis A4
[44] = test system: Staphylococcus aureus
[45] = test system: Enterococcus faecalis 1F-1
[46] = test system: Escherichia coli W3110
[47] = test system: Escherichia coli NDM

MIC [1]: 4 µM (≈ 11.7 µg/mL)
MIC [2]: 8 µM (≈ 23.5 µg/mL)
MIC [3]: 4 µM (≈ 11.7 µg/mL)
SMILES: CC[C@H](C)[C@H](N)C(=O)N[C@@H](C)C(=O)N[C@@H](CCCN=C(N)N)C(=O)N[C@@H](CCCN=C(N)N)C(=O)N[C@@H](C)C(=O)N[C@@H](CC(C)C)C(=O)N[C@@H](CCCCN)C(=O)N[C@@H](C)C(=O)N[C@@H](CO)C(=O)N[C@@H](CC(C)C)C(=O)N[C@@H](CCCN=C(N)N)C(=O)N[C@@H](C)C(=O)N[C@@H](CCCN=C(N)N)C(=O)N[C@@H](Cc1cnc[nH]1)C(=O)N[C@H](C(=O)N[C@H](C(=O)N1CCC[C@H]1C(=O)N[C@@H](CCC(N)=O)C(=O)N[C@@H](CS)C(=O)N[C@@H](CCCCN)C(=O)N[C@@H](CCCCN)C(=O)N[C@@H](Cc1ccccc1)C(=O)NCC(=O)N[C@@H](CCCN=C(N)N)C(=O)N[C@@H](CCCN=C(N)N)C(N)=O)[C@@H](C)CC)[C@@H](C)O [IARRALKASLRARHTIPQCKKFGRR]

MIC [4]: 9.38 µM (≈ 18.3 µg/mL)
MIC [5]: 9.38 µM (≈ 18.3 µg/mL)
MIC [6]: 2.34 µM (≈ 4.56 µg/mL)
MIC [7]: 9.38 µM (≈ 18.3 µg/mL)
MIC [8]: 9.38 µM (≈ 18.3 µg/mL)
MIC [1]: 1.17 µM (≈ 2.28 µg/mL)
MIC [9]: 1.17 µM (≈ 2.28 µg/mL)
MIC [10]: 4.69 µM (≈ 9.14 µg/mL)
MIC [11]: 2.34 µM (≈ 4.56 µg/mL)
SMILES: CC[C@H](C)[C@H](NC(=O)[C@H](CC(C)C)NC(=O)CNC(=O)[C@H](CCCCN)NC(=O)[C@@H](NC(=O)[C@H](CC(C)C)NC(=O)[C@H](CCCCN)NC(=O)[C@@H]1CCCN1C(=O)[C@@H](NC(=O)[C@H](CC(C)C)NC(=O)[C@H](CCCCN)NC(=O)[C@H](Cc1ccccc1)NC(=O)[C@@H](N)Cc1ccccc1)[C@@H](C)CC)C(C)C)C(=O)N[C@@H](CO)C(=O)N[C@@H](C)C(=O)N[C@@H](Cc1ccccc1)C(=O)N[C@@H](CCCCN)C(N)=O [FFKLIPKLVKGLISAFK]

MIC [12]: ≥ 52.2 µM
MIC [13]: > 52.2 µM
MIC [14]: ≥ 52.2 µM
MIC [15]: 209 µM (≈ 512 µg/mL)
MIC [16]: ≥ 52.2 µM
MIC [17]: ≥ 104 µM
MIC [18]: ≥ 52.2 µM
MIC [19]: ≥ 51 µM
MIC [20]: ≥ 209 µM
MIC [21]: ≥ 52.2 µM
MIC [22]: ≥ 209 µM
MIC [23]: ≥ 52.2 µM
MIC [24]: 26.1 µM (≈ 64 µg/mL)
MIC [1]: > 52.2 µM
MIC [25]: ≥ 104 µM
MIC [26]: ≥ 52.2 µM
MIC [11]: > 52.2 µM
MIC [27]: ≥ 52.2 µM
MIC [28]: ≥ 102 µM
MIC [29]: ≥ 52.2 µM
MIC [30]: > 52.2 µM
MIC [31]: 26.1 µM (≈ 64 µg/mL)
MIC [32]: ≥ 52.2 µM
SMILES: CC[C@H](C)[C@H](NC(=O)[C@H](CO)NC(=O)[C@@H](N)CCCN=C(N)N)C(=O)N[C@H](C(=O)N[C@@H](CCCN=C(N)N)C(=O)N1CCC[C@H]1C(=O)N[C@H](C(=O)N[C@@H](CC(C)C)C(=O)N[C@H](C(=O)N[C@@H](CCCN=C(N)N)C(=O)N[C@@H](CCCN=C(N)N)C(=O)N[C@@H](CCCN=C(N)N)C(=O)N[C@@H](Cc1c[nH]c2ccccc12)C(=O)N[C@@H](CCCN=C(N)N)C(=O)N[C@H](C(=O)N[C@@H](CCCN=C(N)N)C(=O)N1CCC[C@H]1C(=O)N[C@H](C(=O)N[C@@H](Cc1ccccc1)C(=O)O)C(C)C)C(C)C)C(C)C)C(C)C)[C@@H](C)O [RSITRPVLVRRRWRVRPVF]

MIC [33]: 1 µM (≈ 2.54 µg/mL)
MIC [34]: 25.2 µM (≈ 64 µg/mL)
MIC [35]: 25.2 µM (≈ 64 µg/mL)
MIC [36]: 1.57 µM (≈ 4 µg/mL)
MIC [37]: 12.6 µM (≈ 32 µg/mL)
MIC [38]: 25.2 µM (≈ 64 µg/mL)
MIC [39]: 25.2 µM (≈ 64 µg/mL)
MIC [40]: 3.15 µM (≈ 8 µg/mL)
MIC [41]: 16 µM (≈ 40.6 µg/mL)
MIC [42]: 25.2 µM (≈ 64 µg/mL)
MIC [43]: 3.15 µM (≈ 8 µg/mL)
MIC [44]: 6.3 µM (≈ 16 µg/mL)
MIC [11]: 25.2 µM (≈ 64 µg/mL)
MIC [45]: 3.15 µM (≈ 8 µg/mL)
MIC [46]: 16 µM (≈ 40.6 µg/mL)
MIC [47]: ≥ 32 µM
SMILES: CC[C@H](C)[C@H](NC(=O)[C@H](CC(C)C)NC(=O)[C@H](CO)NC(=O)[C@@H](NC(=O)[C@H](CCC(N)=O)NC(=O)[C@H](Cc1ccc(O)cc1)NC(=O)[C@H](CCCN=C(N)N)NC(=O)[C@H](CCCN=C(N)N)NC(=O)[C@H](CCCN=C(N)N)NC(=O)[C@@H](NC(=O)[C@H](CO)NC(=O)[C@@H](NC(=O)[C@@H](N)[C@@H](C)O)[C@@H](C)O)[C@@H](C)CC)C(C)C)C(=O)N[C@@H](CCCN=C(N)N)C(=O)N[C@@H](CCCN=C(N)N)C(=O)N[C@@H](Cc1cnc[nH]1)C(=O)N[C@@H](CCCN=C(N)N)C(=O)NCC(=O)N[C@@H](CCCCN)C(=O)N[C@@H](CCCN=C(N)N)C(=O)O [TTSIRRRYQVSLIRRHRGKR]
